Publication PMC6130710 (Pharmaceutical Biology, 2017)
Converted amounts (≈) assume the structure as drawn. Where two headings read alike, the source gives them in different places.

Tests used:
[1] = molecular target: rat intestinal α-glucosidase (maltase); assay: rat intestinal α-glucosidase (maltase) inhibition assay; assay type: biochemical; settings: rat intestine; for IC50: compounds, Table 2
Procedure: (§1) 1 D and 2 D NMR spectra were recorded on a Bruker 400 AVANCE spectrometer, and the chemical shifts were reported in parts per million (ppm) using tetramethylsilane (TMS) as the internal standard. Melting points were determined on a Fisher-Johns Melting Point apparatus. Adsorbents such as silica gel 60 (Merck) were used for column and radial (chromatotron model 7924 T, Harrison Research) chromatographies. Merck silica gel 60F254 plates were used for TLC. HRESIMS spectra were obtained using a Bruker MICROTOF model mass spectrometer. UV-visible absorption spectra were recorded using a UV-2550 (SHIMADZU) UV-Vis spectrometer (Shimadzu, Kyoto, Japan). α-Glucosidase (EC 3.2.1.20) from Saccharomyces cerevisiae and 4-nitrophenyl-α-D-glucopyranoside (p-NPG) were obtained from Sigma-Aldrich (St. Louis, MO). Acarbose was obtained from Bayer Vitol Leverkusen, Germany. Rat intestinal acetone powder was supplied by Sigma Aldrich.
(§2) Moreover, previous procedure (Damsud et al. [2013]) was also applied to determine inhibitory activity of isolated compounds against intestinal α-glucosidases (maltase and sucrase). Briefly, 10 μL of the test sample and substrate solution (maltose: 10 mM, 20 μL; sucrose: 100 mM, 20 μL, respectively) in 0.1 M phosphate buffer (pH 6.9) were incubated at 37 °C (20 min for maltase and 60 min for sucrase). The mixture was discontinued in boiling water for 10 min, and glucose released from the reaction was converted to quinoneimine using a commercial Glu Kit (Human, Germany). The absorbance of final product was determined at 503 nm, and percent inhibition was calculated using the aforementioned equation.

[2] = DPPH radical scavenging activity
Procedure: The antioxidant activity of the extract was evaluated through the free radical scavenging effect on 2,2′-diphenyl-1-picrylhydrazyl (DPPH) (Sigma) radical as previously reported (Yen & Hsieh [1997]) with slight modifications. 100 μL of 0.10 mM DPPH ethanolic solution was added to 20 μL of the sample with various concentrations. The mixture was thoroughly mixed and kept in the dark for 30 min. The absorbance was measured at 517 nm using a Sunrise microplate reader spectrophotometer.

[3] = molecular target: T1, α-Glucosidase (EC 3.2.1.20) from Saccharomyces cerevisiae (Baker's yeast) (Saccharomyces cerevisiae, UniProt P53341); assay: biochemical
T1 construct: purchased Sigma-Aldrich (St. Louis, MO)
Procedure: as §1, with “Acarbose was obtained from Bayer Vitol Leverkusen, Germany.” left out
The evaluation of the inhibitory activity of all compounds against yeast and rat intestinal (maltase and sucrase) α-glucosidases was applied from a previous procedure (Damsud et al. [2013]). The inhibitory effect against yeast α-glucosidase was determined using the protocol previously described. Briefly, 10 μL of sample was mixed with α-glucosidase (0.1 U/mL) in 1 mM phosphate buffer (pH 6.9) and incubated at 37 °C for 10 min. The reaction mixture was added with 1 mM p-nitrophenyl-α-D-glucopyranoside (PNPG, 50 μL) followed by additional 20 min incubation. p-Nitrophenoxide liberated from the reaction was quantified by a microplate reader (UV 405 nm) after the addition of 1 M Na2CO3 (100 μL). The percent inhibition was deduced using the following equation. (A0-A1)/A0×100 where A1 and A0 are absorbances with and without the sample, respectively.

[4] = molecular target: T2, rat intestinal α-glucosidase (sucrase) (Rattus norvegicus, UniProt P23739); assay: rat intestinal α-glucosidase (sucrase) inhibition assay; assay type: biochemical; settings: rat intestine; compounds, Table 2
T2 construct: tissue Sigma Aldrich; host or cells: rat intestinal acetone powder
Procedure: as §1, with “Acarbose was obtained from Bayer Vitol Leverkusen, Germany.” left out
as §2

yeast α-glucosidase = molecular target: T3, yeast α-glucosidase (Saccharomyces cerevisiae, UniProt P53341); assay: enzyme kinetic study (Lineweaver–Burk plots) against yeast α-glucosidase; assay type: biochemical
T3 construct: purchased Sigma-Aldrich (St. Louis, MO)
Source text: Figure 2S. Lineweaver-Burk plots for inhibitory activity of compound 2 against yeast α- […]
Figure 3S. Secondary plot of slope vs [I] for deduction of Ki of compound 2 against yeast α- […]
Figure 4S. Secondary plot of intercept vs [I] for deduction of K′i of compound 2 against yeast […]
Figure 5S. The hydrophobic analysis of compounds 1 (A) and 2 (B). The H-bond interactions were shown as green dotted lines and the hydrophobic interactions with surrounding amino acids are shown as arcs with spokes radiating towards the inhibitor. These schematic diagrams were generated using LigPlot+ software (Laskowski & Swindells, 2011).
Ahmad FBH, Moghaddam MG, Basri M, Abdul Rahman MB. 2010. Anticancer activity of 3-O-acylated betulinic acid derivatives obtained by enzymatic synthesis. Biosci […]

[5] = IC50 Baker's yeast α-glucosidase, compounds, Table 2
[6] = compounds, Table 2, read-out: IC50 Baker's yeast α-glucosidase

T2 sequence (P23739 1014-1841 limits assumed): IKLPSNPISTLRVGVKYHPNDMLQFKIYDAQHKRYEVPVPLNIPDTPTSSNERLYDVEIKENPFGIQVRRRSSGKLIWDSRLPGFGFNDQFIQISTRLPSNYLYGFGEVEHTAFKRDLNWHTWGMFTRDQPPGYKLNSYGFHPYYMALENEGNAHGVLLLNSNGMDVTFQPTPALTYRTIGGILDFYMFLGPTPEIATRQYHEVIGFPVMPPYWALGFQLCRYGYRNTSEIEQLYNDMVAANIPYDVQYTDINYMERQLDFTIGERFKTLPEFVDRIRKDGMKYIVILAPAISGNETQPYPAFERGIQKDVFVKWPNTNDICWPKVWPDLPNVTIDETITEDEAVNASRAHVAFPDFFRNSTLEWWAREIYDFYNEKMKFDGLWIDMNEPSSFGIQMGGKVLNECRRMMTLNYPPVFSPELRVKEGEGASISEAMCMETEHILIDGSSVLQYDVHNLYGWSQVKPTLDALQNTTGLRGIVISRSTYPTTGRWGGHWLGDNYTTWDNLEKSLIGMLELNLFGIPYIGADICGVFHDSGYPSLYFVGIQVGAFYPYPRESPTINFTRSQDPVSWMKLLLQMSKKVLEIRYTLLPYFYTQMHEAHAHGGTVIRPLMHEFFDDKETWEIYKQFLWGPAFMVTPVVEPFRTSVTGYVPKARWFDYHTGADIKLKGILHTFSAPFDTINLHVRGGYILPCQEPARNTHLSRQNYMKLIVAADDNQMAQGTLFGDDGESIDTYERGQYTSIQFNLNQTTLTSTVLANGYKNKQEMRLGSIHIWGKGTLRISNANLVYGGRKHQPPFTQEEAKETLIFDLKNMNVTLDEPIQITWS
T2 sequence (P23739 1-1013 partner limits assumed): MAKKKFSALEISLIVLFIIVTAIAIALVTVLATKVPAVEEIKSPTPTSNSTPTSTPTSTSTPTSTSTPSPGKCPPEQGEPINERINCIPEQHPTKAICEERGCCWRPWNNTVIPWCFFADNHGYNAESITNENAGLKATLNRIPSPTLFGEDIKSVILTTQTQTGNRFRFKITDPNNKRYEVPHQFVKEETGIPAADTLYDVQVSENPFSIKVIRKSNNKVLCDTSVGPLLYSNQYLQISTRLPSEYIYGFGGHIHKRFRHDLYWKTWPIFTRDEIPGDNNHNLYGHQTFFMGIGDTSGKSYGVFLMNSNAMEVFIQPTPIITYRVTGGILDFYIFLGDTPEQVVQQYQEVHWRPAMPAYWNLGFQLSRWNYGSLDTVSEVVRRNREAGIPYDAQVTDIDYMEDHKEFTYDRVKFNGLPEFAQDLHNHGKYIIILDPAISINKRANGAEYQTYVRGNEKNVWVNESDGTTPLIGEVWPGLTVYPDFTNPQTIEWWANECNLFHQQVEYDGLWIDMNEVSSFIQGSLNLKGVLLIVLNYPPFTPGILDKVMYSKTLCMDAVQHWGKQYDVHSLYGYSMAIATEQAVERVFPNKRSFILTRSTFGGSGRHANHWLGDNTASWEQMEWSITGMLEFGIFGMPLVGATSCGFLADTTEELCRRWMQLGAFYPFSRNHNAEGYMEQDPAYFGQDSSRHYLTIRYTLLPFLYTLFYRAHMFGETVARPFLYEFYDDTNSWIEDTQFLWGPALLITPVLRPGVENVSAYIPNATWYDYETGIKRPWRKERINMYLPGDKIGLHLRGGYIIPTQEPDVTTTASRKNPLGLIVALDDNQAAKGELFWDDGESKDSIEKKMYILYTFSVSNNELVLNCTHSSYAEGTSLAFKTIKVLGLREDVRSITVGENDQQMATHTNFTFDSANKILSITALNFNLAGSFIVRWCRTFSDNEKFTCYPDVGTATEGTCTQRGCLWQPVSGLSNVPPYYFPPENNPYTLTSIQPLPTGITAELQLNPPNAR
T1 sequence (P53341 whole entry): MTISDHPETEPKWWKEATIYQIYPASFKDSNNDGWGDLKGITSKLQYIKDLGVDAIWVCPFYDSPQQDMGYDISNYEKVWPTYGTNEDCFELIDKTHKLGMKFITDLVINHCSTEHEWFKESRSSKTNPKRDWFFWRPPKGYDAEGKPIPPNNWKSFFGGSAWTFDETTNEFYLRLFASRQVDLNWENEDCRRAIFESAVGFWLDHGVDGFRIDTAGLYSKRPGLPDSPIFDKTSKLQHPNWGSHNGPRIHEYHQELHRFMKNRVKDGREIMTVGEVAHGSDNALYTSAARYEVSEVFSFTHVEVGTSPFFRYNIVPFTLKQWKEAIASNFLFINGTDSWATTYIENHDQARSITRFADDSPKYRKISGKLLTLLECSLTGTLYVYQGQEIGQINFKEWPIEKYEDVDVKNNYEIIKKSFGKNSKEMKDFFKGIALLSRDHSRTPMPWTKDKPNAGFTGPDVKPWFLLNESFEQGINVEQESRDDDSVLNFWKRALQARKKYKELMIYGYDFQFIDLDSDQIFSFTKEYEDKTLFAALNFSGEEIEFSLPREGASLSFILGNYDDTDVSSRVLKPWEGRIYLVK
T3 sequence (P53341 whole entry): as above

Structure (SMILES)	IC50 [1]	IC50 ([2]; compounds, Table 2)	IC50 [4]	IC50 [3, 6]	other results
C[C@H]1O[C@H](O[C@H]2[C@H](O)[C@@H](O)[C@@H](O[C@H]3[C@H](O)[C@@H](O)C(O)O[C@@H]3CO)O[C@@H]2CO)[C@H](O)[C@@H](O)[C@@H]1N[C@H]1C=C(CO)[C@@H](O)[C@H](O)[C@H]1O (stereo partly drawn) [Acarbose, reference compound]	7.9 ± 0.94 µM				IC50 Maltase ([1]; fractions A-G, Table 1): 5.1 ± 940 µg/mL (≈ 7.9 µM)
Cc1cc(C(C)(C)C)c(O)c(C(C)(C)C)c1 [BHT, reference compound]		328 ± 0.56 µM			IC50 DPPH ([2]; fractions A-G, Table 1): 72 ± 350 µg/mL (≈ 327 µM)
C=C(C)[C@@H]1CC[C@]2(C)CC[C@]3(C)[C@H](CC[C@@H]4[C@@]5(C)CC[C@H](O)C(C)(C)[C@@H]5CC[C@]43C)[C@@H]12 [Compound 1, lupeol]	> 3000 µM	> 10000 µM	> 3000 µM		IC50 [3, 5]: 0.0372 ± 0.00022 mM; IC50 ([3]; experimental IC50 yeast α-glucosidase, restated in mM in docking section): 0.037 mM; IC50 DPPH ([2]; compounds, Table 2): no activity
C=C(C)[C@@H]1CC[C@]2(C(=O)O)CC[C@]3(C)[C@H](CC[C@@H]4[C@@]5(C)CC[C@H](O)C(C)(C)[C@@H]5CC[C@]43C)[C@@H]12 [Compound 2, betunilic acid]	> 3000 µM	> 10000 µM	> 3000 µM	0.0163 ± 0.00203 mM	IC50 ([3]; restated in mM in docking section, read-out: experimental IC50 yeast α-glucosidase): 0.016 mM; IC50 DPPH ([2]; compounds, Table 2): no activity; mode of inhibition (yeast α-glucosidase; Lineweaver–Burk plots, 0.063 and 1.3 mM of inhibitor): mixed mode inhibitor; K'i (uncompetitive component, from intercept plot) (yeast α-glucosidase; secondary plot of intercept vs [I], Figure 4S): 0.019 mM
C=C(C)[C@@H]1CC[C@]2(C(=O)O)CC[C@]3(C)[C@H](CC[C@@H]4[C@@]5(C)CC[C@H](OC(C)=O)C(C)(C)[C@@H]5CC[C@]43C)[C@@H]12 [Compound 2a]	> 3000 µM	> 10000 µM	> 3000 µM	0.0281 ± 0.00076 mM	
C=C(C)[C@@H]1CC[C@]2(C(=O)O)CC[C@]3(C)[C@H](CC[C@@H]4[C@@]5(C)CC[C@H](OC(=O)CC)C(C)(C)[C@@H]5CC[C@]43C)[C@@H]12 [Compound 2b]	> 3000 µM	> 10000 µM	> 3000 µM	0.0433 ± 0.00019 mM	
C=C(C)[C@@H]1CC[C@]2(C(=O)O)CC[C@]3(C)[C@H](CC[C@@H]4[C@@]5(C)CC[C@H](OC(=O)CCC)C(C)(C)[C@@H]5CC[C@]43C)[C@@H]12 [Compound 2c]	> 3000 µM	> 10000 µM	> 3000 µM	0.158 ± 0.00122 mM	
C=C(C)[C@@H]1CC[C@]2(C(=O)O)CC[C@]3(C)[C@H](CC[C@@H]4[C@@]5(C)CC[C@H](OC(=O)CCCC)C(C)(C)[C@@H]5CC[C@]43C)[C@@H]12 [Compound 2d]	> 3000 µM	> 10000 µM	> 3000 µM	0.269 ± 0.00322 mM	
C=C(C)[C@@H]1CC[C@]2(C(=O)O)CC[C@]3(C)[C@H](CC[C@@H]4[C@@]5(C)CC[C@H](OC(=O)CCCCC)C(C)(C)[C@@H]5CC[C@]43C)[C@@H]12 [Compound 2e]	> 3000 µM	> 10000 µM	> 3000 µM	0.0721 ± 0.00154 mM	
C=C(C)[C@@H]1CC[C@]2(C(=O)O)CC[C@]3(C)[C@H](CC[C@@H]4[C@@]5(C)CC[C@H](OC(=O)c6ccccc6)C(C)(C)[C@@H]5CC[C@]43C)[C@@H]12 [Compound 2f]	> 3000 µM	> 10000 µM	> 3000 µM	0.0731 ± 0.00096 mM	
C=C(C)[C@@H]1CC[C@]2(C(=O)N(C(=O)NC3CCCCC3)C3CCCCC3)CC[C@]3(C)[C@H](CC[C@@H]4[C@@]5(C)CC[C@H](O)C(C)(C)[C@@H]5CC[C@]43C)[C@@H]12 [Compound 2g]	> 3000 µM	> 10000 µM	> 3000 µM	0.23 ± 0.00011 mM	melting point: 193 to 194 °C
C=C(C)[C@@H]1CC[C@]2(C(=O)N(C(=O)NC3CCCCC3)C3CCCCC3)CC[C@]3(C)[C@H](CC[C@@H]4[C@@]5(C)CC[C@H](OC(C)=O)C(C)(C)[C@@H]5CC[C@]43C)[C@@H]12 [Compound 2h]	> 3000 µM	> 10000 µM	> 3000 µM	0.281 ± 0.00089 mM	
C=C(C)[C@@H]1CC[C@]2(C(=O)N(C(=O)NC3CCCCC3)C3CCCCC3)CC[C@]3(C)[C@H](CC[C@@H]4[C@@]5(C)CC[C@H](OC(=O)CC)C(C)(C)[C@@H]5CC[C@]43C)[C@@H]12 [Compound 2i]	> 3000 µM	> 10000 µM	> 3000 µM	0.368 ± 0.00164 mM	
C=C(C)[C@@H]1CC[C@]2(C(=O)N(C(=O)NC3CCCCC3)C3CCCCC3)CC[C@]3(C)[C@H](CC[C@@H]4[C@@]5(C)CC[C@H](OC(=O)CCC)C(C)(C)[C@@H]5CC[C@]43C)[C@@H]12 [Compound 2j]	> 3000 µM	> 10000 µM	> 3000 µM	> 0.6 mM	
C=C(C)[C@@H]1CC[C@]2(C(=O)N(C(=O)NC3CCCCC3)C3CCCCC3)CC[C@]3(C)[C@H](CC[C@@H]4[C@@]5(C)CC[C@H](OC(=O)CCCC)C(C)(C)[C@@H]5CC[C@]43C)[C@@H]12 [Compound 2k]	> 3000 µM	> 10000 µM	> 3000 µM	> 0.6 mM	
C=C(C)[C@@H]1CC[C@]2(C(=O)N(C(=O)NC3CCCCC3)C3CCCCC3)CC[C@]3(C)[C@H](CC[C@@H]4[C@@]5(C)CC[C@H](OC(=O)CCCCC)C(C)(C)[C@@H]5CC[C@]43C)[C@@H]12 [Compound 2l]	> 3000 µM	> 10000 µM	> 3000 µM	> 0.6 mM	
COc1cc([C@H]2c3c(cc(OC)c(O)c3OC)C[C@@H](CO)[C@@H]2CO[C@@H]2O[C@H](CO)[C@@H](O)[C@H](O)[C@H]2O)cc(OC)c1O [Compound 4, (+)-lyoniresinol-3α-O-β-D-glucopyranoside]	373 ± 1.05 µM	3795 ± 0.42 µM	1214 ± 2.01 µM	> 0.6 mM	
C[C@@H]1O[C@@H](O[C@H]2[C@H](Oc3c(-c4ccc(O)cc4)oc4cc(O)cc(O)c4c3=O)O[C@@H](C)[C@H](O)[C@H]2O)[C@H](O)[C@H](O)[C@H]1O [Compound 5, kaempferol-3-O-α-L-rhamnopyranosyl-(1→2)-α-L-rhamnopyrano side]	> 3000 µM	6019 ± 1.36 µM	> 3000 µM		IC50 [3, 5]: > 0.6 mM
C[C@@H]1O[C@@H](O[C@H]2[C@H](Oc3c(-c4ccc(O)c(O)c4)oc4cc(O)cc(O)c4c3=O)O[C@@H](C)[C@H](O)[C@H]2O)[C@H](O)[C@H](O)[C@H]1O [Compound 6, horridin]	> 3000 µM	42.8 ± 0.83 µM	> 3000 µM		IC50 [3, 5]: > 0.6 mM
O=C1O[C@H]([C@@H](O)CO)C(O)=C1O [Vitamin C, reference compound]		158 ± 1.9 µM			IC50 DPPH ([2]; fractions A-G, Table 1): 28 ± 1560 µg/mL (≈ 159 µM)
